Results taken from patent publication US12344631B2, “C17 polar-substituted heteroaromatic synthetic triterpenoids and methods of use thereof” (REATA PHARMACEUTICALS, INC., priority 2019, dated 2025).

Legend:
[1] = system: AML-12 hepatocyte cell line; assay: Glutathione assay (total glutathione, GSH-Glo); type: cell-based, mouse; conditions: for EC50: Mus musculus, AML12, AML-12 cells, 24 hours, total glutathione, read-out: GSH EC50 (nM) (Mean ± SD); for GSH EC50 Relative to RTA 402 (fold) (Mean ± SD): benchmark RTA 402
Method: The effect of compound treatment on total glutathione levels was evaluated in the mouse AML-12 hepatocyte cell line. Glutathione—a tripeptide consisting of cysteine, glutamate, and glycine—is the major thiol-containing protein within the cell and regulates cellular redox balance. Glutathione also plays important roles in detoxification, protein glutathionylation, and iron-sulfur cluster biogenesis (Bachhawat and Yadav, 2018). Nrf2 regulates the expression of many genes involved in glutathione synthesis and metabolism, including both subunits of glutamate cysteine ligase (GCL), the enzyme that catalyzes the rate limiting step of glutathione biosynthesis (Thimmulappa et al., 2002). […] The next day, cells were treated with vehicle (DMSO) or test compound (0.03 nM to 1000 nM). Each well received a final concentration of 0.1% DMSO. Cells were incubated at 37° C., 5% CO2 for 24 hours. Total glutathione concentrations were measured using the GSH-Glo Glutathione Assay kit (Promega) according to the manufacturer's instructions. Briefly, a standard curve was prepared by serially diluting the provided glutathione solution. […] After a 30-minute incubation at room temperature, 100 μL of Luciferin detection reagent was added to all sample and standard wells and incubated for 15 minutes. Luminescence was measured using a PHERAstar plate reader. The EC50 value was determined using Excel and GraphPad Prism software. The basal concentration of glutathione was set to 0% and the highest concentration of glutathione produced following treatment with a test compound was set to 100% and a dose-response curve was generated. The dose-response curve was fit using nonlinear regression analysis and used to extrapolate the EC50 value.

RAW 264.7 cells = assay: Nitric oxide suppression assay (IFNγ-induced NO production); type: cell-based, mouse; conditions: for IC50: Mus musculus, RAW264.7, RAW 264.7 cells, 2 h pretreatment, 20 ng/mL interferon gamma 24 h, nitrite by Griess, read-out: NO IC50 (nM) (Mean ± SD); for NO IC50 Relative to RTA 402 (fold) (Mean ± SD): average of ratios from replicate experiments, benchmark RTA 402
Method: Tissue Culture. RAW 264.7, a mouse macrophage cell line, was obtained from American Type Culture Collection (Manassas VA) and maintained in the log phase of growth in Roswell Park Memorial Institute Medium 1640 (RPMI 1640) supplemented with 10% heat inactivated fetal bovine serum (FBS) and 1% penicillin-streptomycin. Cells were cultured and maintained in a humidified incubator at 37° C. under 5% CO2. Cells were sub-cultured every 3 days. […] All cell culture supplies were obtained from Life Technologies (Grand Island, NY) and VWR (Radnor, PA). Nitric Oxide Suppression Assay. RAW 264.7 cells were plated 1 day in advance of experimental treatments at a concentration of 30,000 cells per well onto Falcon-96 well clear bottom plates (Corning, NY) in a total volume of 200 μL per well using RPMI 1640 supplemented with 0.5% fetal bovine serum and 1% penicillin-streptomycin. The next day, cells were pretreated with compounds serially diluted from 1000× stocks. All compounds were dissolved in dimethyl sulfoxide (DMSO) at 10 mM stock solutions. Compounds were subsequently diluted in DMSO and RPMI 1640. Each well received a final concentration of 0.1% DMSO. Cells were pretreated for 2 hours and incubation at 37° C., followed by treatment with 20 ng/mL of interferon gamma (R&D Systems, Minneapolis, MN) per well for 24 hours. […] Afterwards, 50 μL of cell culture supernatant was transferred from each well into a new Falcon-96 well clear bottom plate. […] Afterwards, air bubbles were removed using ethanol vapor and absorbance was measured using a Spectramax M2e plate reader with a wavelength set to 525 nm. Viability was assessed using WST-1 cell proliferation reagent from Roche (Basel, Switzerland). After media was removed for the Nitric Oxide suppression assay, 15 μL of WST-1 reagent was added to each well of cells. Plates were briefly mixed on an orbital shaker and the cells were incubated at 37° C. for 30 minutes. Absorbance was measured using a Spectramax M2e plate reader with wavelengths set to 440 nm and 700 nm. For the ability of compounds to suppress the increase in nitric oxide release caused by interferon gamma, the absolute amount of nitrite that was produced in each well was extrapolated from the nitrite standards using a linear regression fit. All values were then normalized to the DMSO-interferon gamma treated wells and plotted as percent nitric oxide. IC50 values were calculated with a dependence on WST1 viability using Excel and/or GraphPad Prism (San Diego, CA).

[2] = system: AREc32 reporter cell line (antioxidant response element of rat Gsta2, Nrf2 target gene); assay: AREc32 luciferase reporter activation; type: cell-based, human; conditions: for AREc32 EC2X Relative to RTA 402 (fold) (Mean ± SD): average of ratios from replicate experiments, benchmark RTA 402; for EC (2-fold): human, Arec32, 19 h, concentration increasing luminescence signal 2-fold above vehicle, nineteen hours, read-out: AREc32 EC2X (nM) (Mean ± SD); for AREc32 Relative to CC in Same Experiment (Mean ± SD): comparison compound CC3, average of ratios from experiments with direct comparisons
Method: […] The effect of several compounds disclosed herein on luciferase reporter activation was assessed in the AREc32 reporter cell line (see Table 10 and Table 11). This cell line is derived from human breast carcinoma MCF-7 cells and is stably transfected with a luciferase reporter gene under the transcriptional control of eight copies of the antioxidant response element from the rat Gsta2 gene, an Nrf2 target gene ([…] et al., 1990). […] Twenty-four hours after plating, cells were treated with vehicle (DMSO) or test compounds at concentrations ranging from 0.03 to 1000 nM for nineteen hours. Media was removed and 100 μL of 1:1 mixture of the One-Glo Luciferase assay reagent and culture medium was added to each well. After incubation for 5 min at room temperature, the luminescence signal was measured on a PHERAstar plate reader. The EC2X value was determined using Excel and GraphPad Prism software. The fold increase in luminescence signal for cells treated with each concentration of compound relative to cells treated with vehicle was determined and a dose-response curve was generated. The dose-response curve was fit using nonlinear regression analysis and used to extrapolate the EC2X value.

| Structure (SMILES) | EC50 [1] [nM] | GSH EC50 Relative to RTA 402 (fold) (Mean ± SD) [1] | IC50 (RAW 264.7 cells) [nM] | NO IC50 Relative to RTA 402 (fold) (Mean ± SD) (RAW 264.7 cells) | AREc32 EC2X Relative to RTA 402 (fold) (Mean ± SD) [2] | EC (2-fold) [2] [nM] | AREc32 Relative to CC in Same Experiment (Mean ± SD) [2] |
| --- | --- | --- | --- | --- | --- | --- | --- |
| CCc1nc([C@]23CCC(C)(C)C[C@H]2[C@H]2C(=O)C=C4[C@@]5(C)C=C(C#N)C(=O)C(C)(C)[C@@H]5CC[C@@]4(C)[C@]2(C)CC3)no1 [Compound T24] | 6.11 ± 2.23 | 2.53 ± 0.52 | 9.21 | 2.56 ± 0.62 | 2.50 ± 0.66 | 32.2 ± 2.59 |  |
| CC1(C)CC[C@]2(c3noc(C4CC4)n3)CC[C@]3(C)[C@H](C(=O)C=C4[C@@]5(C)C=C(C#N)C(=O)C(C)(C)[C@@H]5CC[C@]43C)[C@@H]2C1 [Compound T25] | 9.07 ± 1.55 | 3.36 ± 0.34 | 11.2 ± 2.09 | 3.08 ± 1.54 | 4.39 ± 0.23 | 44 ± 1.2 |  |
| C[C@@H]1C(=O)C(C#N)=C[C@]2(C)C3=CC(=O)[C@@H]4[C@@H]5CC(C)(C)CC[C@]5(c5nc(C(F)F)no5)CC[C@@]4(C)[C@]3(C)CC[C@@H]12 [Compound T35] | 1.99 ± 0.42 | 1.02 ± 0.04 | 5.48 ± 3.04 | 1.21 ± 0.21 | 0.73 ± 0.14 | 10.7 ± 1.02 | 1.66 ± 0.31 |
| C[C@@H]1C(=O)C(C#N)=C[C@]2(C)C3=CC(=O)[C@@H]4[C@@H]5CC(C)(C)CC[C@]5(c5nc(C(F)(F)F)no5)CC[C@@]4(C)[C@]3(C)CC[C@@H]12 [Compound T36] | 10.4 ± 1.62 | 5.40 ± 0.54 | 17.8 ± 9.89 | 3.95 ± 0.84 | 2.25 ± 0.31 | 33.7 ± 6.99 |  |
| CCc1noc([C@]23CCC(C)(C)C[C@H]2[C@H]2C(=O)C=C4[C@@]5(C)C=C(C#N)C(=O)[C@@H](C)[C@@H]5CC[C@@]4(C)[C@]2(C)CC3)n1 [Compound T37] | 1.69 ± 0.19 | 0.88 ± 0.13 | 3.45 ± 1.87 | 0.76 ± 0.12 | 0.69 ± 0.06 | 10.3 ± 1.35 | 1.58 ± 0.16 |
| CC1(C)CC[C@]2(c3noc(C(F)(F)F)n3)CC[C@]3(C)[C@H](C(=O)C=C4[C@@]5(C)C=C(C#N)C(=O)C(C)(C)[C@@H]5CC[C@]43C)[C@@H]2C1 [Compound T40] | 18.3 ± 2.19 | 8.96 ± 0.68 | 24.2 ± 7.64 | 7.76 ± 2.19 | 4.76 ± 0.93 | 64.9 ± 12.6 |  |
